Patent publication US10004701B2, “Methods and compositions for treating infection” (UNIVERSITY OF ROCHESTER, priority 2012, dated 2018)
Where a name gives a salt, the structure may show the parent alone. Read-outs that look alike come from different tables or passages of the source.

How the values were obtained:
Assay in all cases: AK assay 384-well format, Prestwick library screening
[1] = system: E. faecium; type: cell-based, Enterococcus faecium; settings: 50 μM final drug concentration; for fold induction at 50 µM: Enterococcus faecium, 3 h
[2] = system: S. aureus strain USA300-0114; type: cell-based, Staphylococcus aureus; settings: 50 μM final drug concentration; for fold induction at 50 µM: Staphylococcus aureus, USA300, 3 h
[3] = system: K. pneumoniae; type: cell-based, Klebsiella pneumoniae; settings: 50 μM final drug concentration; for fold induction at 50 µM: Klebsiella pneumoniae, 3 h
[4] = system: A. baumannii strain 98-37-09; type: cell-based, Acinetobacter baumannii; settings: 50 μM final drug concentration; for fold induction at 50 µM: Acinetobacter baumannii, 983709, 3 h
[5] = system: P. aeruginosa; type: cell-based, Pseudomonas aeruginosa; settings: 50 μM final drug concentration; for fold induction at 50 µM: Pseudomonas aeruginosa, 3 h
[6] = system: E. cloacae; type: cell-based, Enterobacter cloacae; settings: 50 μM final drug concentration; for fold induction at 50 µM: Enterobacter cloacae, 3 h
[7] = system: E. coli; type: cell-based, Escherichia coli; settings: 50 μM final drug concentration; for fold induction at 50 µM: Escherichia coli, 3 h
[8] = planktonic E. coli, […], read-out: AK-based Prestwick Library Screening Results, E. coli (increase in extracellular AK activity)
[9] = planktonic E. faecium, cutoff for positive-scoring molecules 3-fold increase, read-out: AK-based Prestwick Library Screening Results, E. faecium (increase in extracellular AK activity)
[10] = planktonic S. aureus, cutoff for positive-scoring molecules 3-fold increase, read-out: AK-based Prestwick Library Screening Results, S. aureus (increase in extracellular AK activity)
[11] = planktonic K. pneumoniae, cutoff for positive-scoring molecules 3-fold increase, read-out: AK-based Prestwick Library Screening Results, K. pneumoniae (increase in extracellular AK activity)
[12] = planktonic A. baumannii, cutoff for positive-scoring molecules 3-fold increase, read-out: AK-based Prestwick Library Screening Results, A. baumannii (increase in extracellular AK activity)
[13] = planktonic P. aeruginosa, cutoff for positive-scoring molecules 3-fold increase, read-out: AK-based Prestwick Library Screening Results, P. aeruginosa (increase in extracellular AK activity)
[14] = planktonic E. cloacae, cutoff for positive-scoring molecules 3-fold increase, read-out: AK-based Prestwick Library Screening Results, E. cloacae (increase in extracellular AK activity)
[15] = planktonic E. coli, cutoff for positive-scoring molecules 3-fold increase, read-out: AK-based Prestwick Library Screening Results, E. coli (increase in extracellular AK activity)
[16] = planktonic, cutoff for positive-scoring molecules 3-fold increase, read-out: AK-based Prestwick Library Screening Results, E. faecium (fold increase in extracellular AK activity)
[17] = planktonic, cutoff for positive-scoring molecules 3-fold increase, read-out: AK-based Prestwick Library Screening Results, S. aureus (fold increase in extracellular AK activity)
[18] = planktonic, cutoff for positive-scoring molecules 3-fold increase, read-out: AK-based Prestwick Library Screening Results, K. pneumoniae (fold increase in extracellular AK activity)
[19] = planktonic, cutoff for positive-scoring molecules 3-fold increase, read-out: AK-based Prestwick Library Screening Results, A. baumannii (fold increase in extracellular AK activity)
[20] = planktonic, cutoff for positive-scoring molecules 3-fold increase, read-out: AK-based Prestwick Library Screening Results, P. aeruginosa (fold increase in extracellular AK activity)
[21] = planktonic, cutoff for positive-scoring molecules 3-fold increase, read-out: AK-based Prestwick Library Screening Results, E. cloacae (fold increase in extracellular AK activity)
[22] = planktonic, cutoff for positive-scoring molecules 3-fold increase, read-out: AK-based Prestwick Library Screening Results, E. coli (fold increase in extracellular AK activity)
[23] = 384-well format, cutoff for positive-scoring molecules 3-fold increase, read-out: AK-based Prestwick Library Screening Results, E. faecium (increase in extracellular AK activity)
[24] = 384-well format, cutoff for positive-scoring molecules 3-fold increase, read-out: AK-based Prestwick Library Screening Results, S. aureus (increase in extracellular AK activity)
[25] = 384-well format, cutoff for positive-scoring molecules 3-fold increase, read-out: AK-based Prestwick Library Screening Results, K. pneumoniae (increase in extracellular AK activity)
[26] = 384-well format, cutoff for positive-scoring molecules 3-fold increase, read-out: AK-based Prestwick Library Screening Results, A. baumannii (increase in extracellular AK activity)
[27] = 384-well format, cutoff for positive-scoring molecules 3-fold increase, read-out: AK-based Prestwick Library Screening Results, P. aeruginosa (increase in extracellular AK activity)
[28] = 384-well format, cutoff for positive-scoring molecules 3-fold increase, read-out: AK-based Prestwick Library Screening Results, E. cloacae (increase in extracellular AK activity)
[29] = 384-well format, cutoff for positive-scoring molecules 3-fold increase, read-out: AK-based Prestwick Library Screening Results, E. coli (increase in extracellular AK activity)
[30] = planktonic E. faecium, 384-well, cutoff for positive-scoring molecules 3-fold increase, read-out: AK-based Prestwick Library Screening Results: E. faecium (increase in extracellular AK activity)
[31] = planktonic S. aureus, 384-well, cutoff for positive-scoring molecules 3-fold increase, read-out: AK-based Prestwick Library Screening Results: S. aureus (increase in extracellular AK activity)
[32] = planktonic K. pneumoniae, 384-well, cutoff for positive-scoring molecules 3-fold increase, read-out: AK-based Prestwick Library Screening Results: K. pneumoniae (increase in extracellular AK activity)
[33] = planktonic A. baumannii, 384-well, cutoff for positive-scoring molecules 3-fold increase, read-out: AK-based Prestwick Library Screening Results: A. baumannii (increase in extracellular AK activity)
[34] = planktonic P. aeruginosa, 384-well, cutoff for positive-scoring molecules 3-fold increase, read-out: AK-based Prestwick Library Screening Results: P. aeruginosa (increase in extracellular AK activity)
[35] = planktonic E. cloacae, 384-well, cutoff for positive-scoring molecules 3-fold increase, read-out: AK-based Prestwick Library Screening Results: E. cloacae (increase in extracellular AK activity)
[36] = planktonic E. coli, 384-well, cutoff for positive-scoring molecules 3-fold increase, read-out: AK-based Prestwick Library Screening Results: E. coli (increase in extracellular AK activity)

With `CN1C(=O)CCS(=O)(=O)C1c1ccc(Cl)cc1` (stereo not drawn) [Chlormezanone] the fold induction at 50 µM ([1]; planktonic E. faecium, […], read-out: AK-based Prestwick Library Screening Results, E. faecium (increase in extracellular AK activity)) was 1, the fold induction at 50 µM ([2]; planktonic S. aureus, […], read-out: AK-based Prestwick Library Screening Results, S. aureus (increase in extracellular AK activity)) was 0.7 and the fold induction at 50 µM ([3]; planktonic K. pneumoniae, […], read-out: AK-based Prestwick Library Screening Results, K. pneumoniae (increase in extracellular AK activity)) was 0.6. For the same compound, the fold induction at 50 µM ([4]; planktonic A. baumannii, […], read-out: AK-based Prestwick Library Screening Results, A. baumannii (increase in extracellular AK activity)) was 0.7, the fold induction at 50 µM ([5]; planktonic P. aeruginosa, […], read-out: AK-based Prestwick Library Screening Results, P. aeruginosa (increase in extracellular AK activity)) was 0.6 and the fold induction at 50 µM ([6]; planktonic E. cloacae, […], read-out: AK-based Prestwick Library Screening Results, E. cloacae (increase in extracellular AK activity)) was 0.7. For the same compound, the fold induction at 50 µM [7, 8] was 0.7.
Compound `O=C(/C=C/c1ccc(O)c(O)c1)O[C@@H]1C[C@](O)(C(=O)O)C[C@@H](O)[C@H]1O` [Chlorogenic acid] has a fold induction at 50 µM [1, 9] of 0.9, a fold induction at 50 µM [2, 10] of 0.5 and a fold induction at 50 µM [3, 11] of 0.7. It also gave a fold induction at 50 µM [4, 12] of 0.8, a fold induction at 50 µM [5, 13] of 0.7 and a fold induction at 50 µM [6, 14] of 0.8. It also gave a fold induction at 50 µM [7, 15] of 0.8.
In the case of `CN(C)CCN(Cc1ccc(Cl)cc1)c1ccccn1` [Chloropyramine hydrochloride], the fold induction at 50 µM [1, 16] is reported as 0.9, the fold induction at 50 µM [2, 17] is reported as 0.5 and the fold induction at 50 µM [3, 18] is reported as 0.6. The fold induction at 50 µM [4, 19] was 0.6, the fold induction at 50 µM [5, 20] was 0.5 and the fold induction at 50 µM [6, 21] was 0.6. The fold induction at 50 µM [7, 22] was 0.7.
For `NS(=O)(=O)c1cc2c(cc1Cl)N=CNS2(=O)=O` [Chlorothiazide], the fold induction at 50 µM [1, 23] was 1, the fold induction at 50 µM [2, 24] was 0.8 and the fold induction at 50 µM [3, 25] was 0.7. It also gave a fold induction at 50 µM [4, 26] of 0.9, a fold induction at 50 µM [5, 27] of 0.9 and a fold induction at 50 µM [6, 28] of 0.9. The fold induction at 50 µM [7, 29] was 0.9.
`COc1ccc(C(Cl)=C(c2ccc(OC)cc2)c2ccc(OC)cc2)cc1` [Chlorotrianisene] was tested, and the fold induction at 50 µM [1, 16] was 1, the fold induction at 50 µM [2, 17] was 0.8 and the fold induction at 50 µM [3, 18] was 0.8. It also gave a fold induction at 50 µM [4, 19] of 0.8, a fold induction at 50 µM [5, 20] of 0.8 and a fold induction at 50 µM [6, 21] of 1.4. For the same compound, the fold induction at 50 µM [7, 22] was 0.9.
In the case of `CN(C)CCC(c1ccc(Cl)cc1)c1ccccn1` (stereo not drawn) [Chlorpheniramine maleate], the fold induction at 50 µM [1, 23] is reported as 0.9, the fold induction at 50 µM [2, 24] is reported as 0.8 and the fold induction at 50 µM [3, 25] is reported as 0.7. The fold induction at 50 µM [4, 26] was 0.9, the fold induction at 50 µM [5, 27] was 0.8 and the fold induction at 50 µM [6, 28] was 1.1. For the same compound, the fold induction at 50 µM [7, 29] was 1.
`NC(=O)OCC(O)COc1ccc(Cl)cc1` (stereo not drawn) [Chlorphensin carbamate] was tested, and the “AK-based Prestwick Library Screening Results: E. faecium (increase in extracellular AK activity)” value ([1]; planktonic E. faecium, 384-well, cutoff for positive-scoring molecules 3-fold increase) was 0.9, the “AK-based Prestwick Library Screening Results: S. aureus (increase in extracellular AK activity)” value ([2]; planktonic S. aureus, 384-well, cutoff for positive-scoring molecules 3-fold increase) was 1.0 and the “AK-based Prestwick Library Screening Results: K. pneumoniae (increase in extracellular AK activity)” value ([3]; planktonic K. pneumoniae, 384-well, cutoff for positive-scoring molecules 3-fold increase) was 1.1. For the same compound, the “AK-based Prestwick Library Screening Results: A. baumannii (increase in extracellular AK activity)” value ([4]; planktonic A. baumannii, 384-well, cutoff for positive-scoring molecules 3-fold increase) was 1.3, the “AK-based Prestwick Library Screening Results: P. aeruginosa (increase in extracellular AK activity)” value ([5]; planktonic P. aeruginosa, 384-well, cutoff for positive-scoring molecules 3-fold increase) was 1.1 and the “AK-based Prestwick Library Screening Results: E. cloacae (increase in extracellular AK activity)” value ([6]; planktonic E. cloacae, 384-well, cutoff for positive-scoring molecules 3-fold increase) was 1.4. For the same compound, the “AK-based Prestwick Library Screening Results: E. coli (increase in extracellular AK activity)” value ([7]; planktonic E. coli, 384-well, cutoff for positive-scoring molecules 3-fold increase) was 1.2.
Compound `CN(C)CCCN1c2ccccc2Sc2ccc(Cl)cc21` [Chlorpromazine hydrochloride] has a fold induction at 50 µM [1, 30] of 1, a fold induction at 50 µM [2, 31] of 1.4 and a fold induction at 50 µM [3, 32] of 1.1. The fold induction at 50 µM [4, 33] was 1.5, the fold induction at 50 µM [5, 34] was 1.1 and the fold induction at 50 µM [6, 35] was 1.4. For the same compound, the fold induction at 50 µM [7, 36] was 1.4.
`CCCNC(=O)NS(=O)(=O)c1ccc(Cl)cc1` [Chlorpropamide] was tested, and the fold induction at 50 µM [1, 30] was 0.9, the fold induction at 50 µM [2, 31] was 0.4 and the fold induction at 50 µM [3, 32] was 0.4. For the same compound, the fold induction at 50 µM [4, 33] was 0.3, the fold induction at 50 µM [5, 34] was 0.3 and the fold induction at 50 µM [6, 35] was 0.3. The fold induction at 50 µM [7, 36] was 0.4.
`CN(C)CC/C=C1/c2ccccc2Sc2ccc(Cl)cc21` [Chlorprothixene hydrochloride] was tested, and the fold induction at 50 µM [1, 9] was 1, the fold induction at 50 µM [2, 10] was 0.6 and the fold induction at 50 µM [3, 11] was 0.8. It also gave a fold induction at 50 µM [4, 12] of 1.2, a fold induction at 50 µM [5, 13] of 0.9 and a fold induction at 50 µM [6, 14] of 1. The fold induction at 50 µM [7, 8] was 1.
For `CN(C)[C@@H]1C(O)=C(C(N)=O)C(=O)[C@@]2(O)C(O)=C3C(=O)c4c(O)ccc(Cl)c4[C@@](C)(O)[C@H]3C[C@@H]12` [Chlortetracycline hydrochloride], the fold induction at 50 µM [1, 30] was 0.9, the fold induction at 50 µM [2, 31] was 6.8 and the fold induction at 50 µM [3, 32] was 0.2. It also gave a fold induction at 50 µM [4, 33] of 3.9, a fold induction at 50 µM [5, 34] of 0.7 and a fold induction at 50 µM [6, 35] of 1. The fold induction at 50 µM [7, 36] was 0.8.
Compound `NS(=O)(=O)c1cc(C2(O)NC(=O)c3ccccc32)ccc1Cl` (stereo not drawn) [Chlorthalidone] has a fold induction at 50 µM [1, 9] of 0.9, a fold induction at 50 µM [2, 10] of 0.7 and a fold induction at 50 µM [3, 11] of 0.6. For the same compound, the fold induction at 50 µM [4, 12] was 0.8, the fold induction at 50 µM [5, 13] was 0.8 and the fold induction at 50 µM [6, 14] was 1. The fold induction at 50 µM [7, 15] was 0.9.
